Test [1] deals with STAT3 phosphorylation by IL-6 in TF-1 cells. In words: JAK cellular assay: STAT3 phosphorylation by IL-6 in TF-1 cells (HTRF). The format is cell-based. The following applies: Homo sapiens, TF-1, TF-1 cells, IL-6 30 ng/ml, pSTAT3 HTRF; read-out: Cell Based Assay (μM) TF-1/IL-6/pSTAT3. The gist of the method:
(§1)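 Phospho-STAT3 (IL-6, 30 ng/ml) and phospho-STAT5 (GMCSF, 5 ng/ml) read by HTRF in lysates after 20 min cytokine exposure, minus unstimulated-cell background. Cells were serum-starved overnight, plated at 120,000/well, given compound 30 min at 37 °C beforehand; DMSO 0.2% final.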

For test [2], the target named is T1, Recombinant TYK2 (Homo sapiens, UniProt P29597).
T1 construct: purchased Carna Biosciences
Briefly: JAK biochemical assay (LANCE Ultra TR-FRET), TYK2. To be noted: recombinant TYK2, TR-FRET; read-out: Biochemical Assay (μM) TYK2. Summed up: (§2)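 % inhibition relative to vehicle was derived from TR-FRET signal proportional to ULight-substrate phosphorylation. Reactions used recombinant kinase in HEPES pH 7.5 buffer containing EGTA, MgCl2, DTT and Tween-20.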
In general terms: Time-resolved FRET reads energy transfer from a long-lived donor to a nearby acceptor.

In test [3] the test system is IFN-γ production in NK 92 cells by IL-12. In words: IFN-γ production in NK 92 cells by IL-12 (ELISA). To be noted: NK92, IFN-γ secretion, read-out: Cell Based Assay (μM) NK-92/IL-2/IFN-γ. Background: ELISA stands for enzyme-linked immunosorbent assay.
The subject of test [4] is STAT5 phosphorylation by GMCSF in TF-1 cells. In words: JAK cellular assay: STAT5 phosphorylation by GMCSF in TF-1 cells (HTRF). It is filed as cell-based. The following applies: Homo sapiens; TF-1 cells, GMCSF 5 ng/ml, pSTAT5 HTRF; read-out: Cell Based Assay (μM) TF-1/GMCSF/pSTAT5. Summed up: as §1
The test system of test [5] is STAT5 phosphorylation by IL-2 in HT-2 cells. Briefly: STAT5 phosphorylation by IL-2 in HT-2 cells (HTRF). To be noted: HT2, HT-2 cells, IL-2 50 U/ml, pSTAT5 HTRF; read-out: Cell Based Assay (μM) HT-2/IL-2/pSTAT5. It is filed as cell-based. Summed up:
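Readout is HTRF detection of phospho-STAT5 in lysates, corrected for signal from unstimulated cells. Before lysis, HT-2 cells starved in 10% FBS medium received compound for 30 min (0.2% DMSO final, 37 °C), followed by 50 U/ml recombinant human IL-2 for 20 min.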

In test [6] the target is T2, Recombinant JAK1 (Homo sapiens, UniProt P23458).
T2 construct: purchased Carna Biosciences
In words: JAK biochemical assay (LANCE Ultra TR-FRET), JAK1. The following applies: recombinant JAK1, TR-FRET; read-out: Biochemical Assay (μM) JAK1. The gist of the method:
as §2

Test [7] has as its target T3, Recombinant JAK3 (Homo sapiens, UniProt P52333).
T3 construct: purchased Carna Biosciences
T3 sequence (P52333 1-1124): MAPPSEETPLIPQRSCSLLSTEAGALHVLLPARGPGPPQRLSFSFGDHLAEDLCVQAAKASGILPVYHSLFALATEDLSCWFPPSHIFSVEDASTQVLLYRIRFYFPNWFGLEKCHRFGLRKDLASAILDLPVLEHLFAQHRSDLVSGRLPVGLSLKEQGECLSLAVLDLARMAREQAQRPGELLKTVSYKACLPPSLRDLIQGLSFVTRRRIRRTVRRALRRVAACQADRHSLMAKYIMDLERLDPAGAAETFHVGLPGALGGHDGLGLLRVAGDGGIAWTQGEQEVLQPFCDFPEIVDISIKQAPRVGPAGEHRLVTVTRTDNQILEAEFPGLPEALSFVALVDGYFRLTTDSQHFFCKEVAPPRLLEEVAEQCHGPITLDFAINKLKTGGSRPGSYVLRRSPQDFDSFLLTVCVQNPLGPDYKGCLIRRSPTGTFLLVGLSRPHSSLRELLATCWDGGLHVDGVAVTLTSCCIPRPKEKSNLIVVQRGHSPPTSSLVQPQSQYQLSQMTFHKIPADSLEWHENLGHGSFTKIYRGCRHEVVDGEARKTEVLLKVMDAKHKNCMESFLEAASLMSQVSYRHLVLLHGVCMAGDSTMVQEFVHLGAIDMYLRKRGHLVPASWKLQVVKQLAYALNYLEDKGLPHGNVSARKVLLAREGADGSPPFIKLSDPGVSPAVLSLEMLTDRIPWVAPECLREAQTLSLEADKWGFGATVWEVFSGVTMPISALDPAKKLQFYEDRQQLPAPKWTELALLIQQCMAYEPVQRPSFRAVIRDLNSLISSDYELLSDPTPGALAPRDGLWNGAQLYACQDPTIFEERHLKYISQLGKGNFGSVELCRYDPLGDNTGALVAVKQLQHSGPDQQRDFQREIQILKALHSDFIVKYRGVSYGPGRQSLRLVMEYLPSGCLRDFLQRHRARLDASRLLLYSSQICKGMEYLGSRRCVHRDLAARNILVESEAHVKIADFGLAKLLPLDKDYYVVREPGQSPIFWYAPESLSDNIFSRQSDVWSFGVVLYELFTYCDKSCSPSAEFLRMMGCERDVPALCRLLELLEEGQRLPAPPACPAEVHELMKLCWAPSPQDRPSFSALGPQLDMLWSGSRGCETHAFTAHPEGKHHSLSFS
Briefly: JAK biochemical assay (LANCE Ultra TR-FRET), JAK3. To be noted: recombinant JAK3, TR-FRET; read-out: Biochemical Assay (μM) JAK3. The gist of the method: as §2

Test [8] addresses T4, Recombinant JAK2 (Homo sapiens, UniProt O60674).
T4 construct: purchased Carna Biosciences
In words: JAK biochemical assay (LANCE Ultra TR-FRET), JAK2. The following applies: recombinant JAK2, TR-FRET; read-out: Biochemical Assay (μM) JAK2. Summed up:
as §2

T2 sequence (P23458 whole entry): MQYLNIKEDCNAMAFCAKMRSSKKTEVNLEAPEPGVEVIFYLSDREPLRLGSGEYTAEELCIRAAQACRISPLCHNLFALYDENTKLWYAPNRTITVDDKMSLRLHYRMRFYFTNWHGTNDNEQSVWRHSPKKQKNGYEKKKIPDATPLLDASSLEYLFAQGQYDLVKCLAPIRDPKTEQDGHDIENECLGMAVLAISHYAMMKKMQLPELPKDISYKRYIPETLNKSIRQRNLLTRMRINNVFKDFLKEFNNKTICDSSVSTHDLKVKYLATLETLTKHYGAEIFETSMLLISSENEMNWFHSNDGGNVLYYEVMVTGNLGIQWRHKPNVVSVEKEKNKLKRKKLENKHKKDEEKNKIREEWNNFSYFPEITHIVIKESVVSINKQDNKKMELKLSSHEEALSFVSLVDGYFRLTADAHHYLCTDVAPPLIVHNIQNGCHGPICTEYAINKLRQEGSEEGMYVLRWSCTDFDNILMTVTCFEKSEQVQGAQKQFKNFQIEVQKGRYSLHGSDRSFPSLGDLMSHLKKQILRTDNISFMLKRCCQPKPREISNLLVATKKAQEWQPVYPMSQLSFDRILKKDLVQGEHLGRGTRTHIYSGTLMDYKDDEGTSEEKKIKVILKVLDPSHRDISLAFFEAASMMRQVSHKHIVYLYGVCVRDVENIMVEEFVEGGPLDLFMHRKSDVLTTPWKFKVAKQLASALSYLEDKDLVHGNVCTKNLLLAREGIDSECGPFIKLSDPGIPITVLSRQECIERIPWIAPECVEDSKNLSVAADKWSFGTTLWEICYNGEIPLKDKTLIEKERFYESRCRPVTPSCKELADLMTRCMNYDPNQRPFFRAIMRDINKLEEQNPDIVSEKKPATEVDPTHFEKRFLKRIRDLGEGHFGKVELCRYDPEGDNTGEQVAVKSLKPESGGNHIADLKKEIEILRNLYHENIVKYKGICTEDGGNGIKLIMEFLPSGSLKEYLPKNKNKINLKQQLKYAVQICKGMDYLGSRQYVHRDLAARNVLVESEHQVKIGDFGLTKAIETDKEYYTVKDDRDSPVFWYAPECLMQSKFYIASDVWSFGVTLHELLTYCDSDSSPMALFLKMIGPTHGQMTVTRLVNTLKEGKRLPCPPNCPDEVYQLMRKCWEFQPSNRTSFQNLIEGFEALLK
T1 sequence (P29597 whole entry): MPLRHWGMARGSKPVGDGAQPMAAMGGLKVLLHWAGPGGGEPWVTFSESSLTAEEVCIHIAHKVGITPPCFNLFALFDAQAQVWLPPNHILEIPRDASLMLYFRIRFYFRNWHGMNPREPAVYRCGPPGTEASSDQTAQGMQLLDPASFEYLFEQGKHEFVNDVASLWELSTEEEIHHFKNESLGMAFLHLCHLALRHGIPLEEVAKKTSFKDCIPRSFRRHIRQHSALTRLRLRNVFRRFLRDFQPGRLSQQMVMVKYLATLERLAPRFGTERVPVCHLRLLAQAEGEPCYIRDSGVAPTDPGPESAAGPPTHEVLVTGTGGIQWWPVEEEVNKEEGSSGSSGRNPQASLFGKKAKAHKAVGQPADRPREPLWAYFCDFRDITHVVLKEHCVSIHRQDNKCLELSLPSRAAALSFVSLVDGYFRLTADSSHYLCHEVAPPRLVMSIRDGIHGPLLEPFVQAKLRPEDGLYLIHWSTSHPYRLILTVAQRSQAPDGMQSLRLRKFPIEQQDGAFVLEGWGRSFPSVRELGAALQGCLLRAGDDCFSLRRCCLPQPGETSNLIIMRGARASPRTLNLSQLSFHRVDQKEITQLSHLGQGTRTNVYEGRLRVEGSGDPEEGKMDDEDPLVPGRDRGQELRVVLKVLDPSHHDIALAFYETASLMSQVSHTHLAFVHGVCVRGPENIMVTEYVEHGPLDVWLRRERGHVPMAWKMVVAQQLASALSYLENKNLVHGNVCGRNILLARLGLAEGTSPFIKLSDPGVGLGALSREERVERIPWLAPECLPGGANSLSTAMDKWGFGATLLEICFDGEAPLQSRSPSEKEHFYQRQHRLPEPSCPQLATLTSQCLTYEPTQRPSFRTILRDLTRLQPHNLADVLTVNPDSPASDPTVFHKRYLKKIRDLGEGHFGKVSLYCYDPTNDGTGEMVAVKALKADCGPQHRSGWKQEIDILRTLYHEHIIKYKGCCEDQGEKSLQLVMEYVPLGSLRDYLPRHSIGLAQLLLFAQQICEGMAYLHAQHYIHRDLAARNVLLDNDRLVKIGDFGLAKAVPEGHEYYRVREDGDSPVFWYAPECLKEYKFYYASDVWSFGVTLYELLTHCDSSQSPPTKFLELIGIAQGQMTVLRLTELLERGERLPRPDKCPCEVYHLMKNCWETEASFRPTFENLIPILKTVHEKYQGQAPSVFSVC
T4 sequence (O60674 whole entry): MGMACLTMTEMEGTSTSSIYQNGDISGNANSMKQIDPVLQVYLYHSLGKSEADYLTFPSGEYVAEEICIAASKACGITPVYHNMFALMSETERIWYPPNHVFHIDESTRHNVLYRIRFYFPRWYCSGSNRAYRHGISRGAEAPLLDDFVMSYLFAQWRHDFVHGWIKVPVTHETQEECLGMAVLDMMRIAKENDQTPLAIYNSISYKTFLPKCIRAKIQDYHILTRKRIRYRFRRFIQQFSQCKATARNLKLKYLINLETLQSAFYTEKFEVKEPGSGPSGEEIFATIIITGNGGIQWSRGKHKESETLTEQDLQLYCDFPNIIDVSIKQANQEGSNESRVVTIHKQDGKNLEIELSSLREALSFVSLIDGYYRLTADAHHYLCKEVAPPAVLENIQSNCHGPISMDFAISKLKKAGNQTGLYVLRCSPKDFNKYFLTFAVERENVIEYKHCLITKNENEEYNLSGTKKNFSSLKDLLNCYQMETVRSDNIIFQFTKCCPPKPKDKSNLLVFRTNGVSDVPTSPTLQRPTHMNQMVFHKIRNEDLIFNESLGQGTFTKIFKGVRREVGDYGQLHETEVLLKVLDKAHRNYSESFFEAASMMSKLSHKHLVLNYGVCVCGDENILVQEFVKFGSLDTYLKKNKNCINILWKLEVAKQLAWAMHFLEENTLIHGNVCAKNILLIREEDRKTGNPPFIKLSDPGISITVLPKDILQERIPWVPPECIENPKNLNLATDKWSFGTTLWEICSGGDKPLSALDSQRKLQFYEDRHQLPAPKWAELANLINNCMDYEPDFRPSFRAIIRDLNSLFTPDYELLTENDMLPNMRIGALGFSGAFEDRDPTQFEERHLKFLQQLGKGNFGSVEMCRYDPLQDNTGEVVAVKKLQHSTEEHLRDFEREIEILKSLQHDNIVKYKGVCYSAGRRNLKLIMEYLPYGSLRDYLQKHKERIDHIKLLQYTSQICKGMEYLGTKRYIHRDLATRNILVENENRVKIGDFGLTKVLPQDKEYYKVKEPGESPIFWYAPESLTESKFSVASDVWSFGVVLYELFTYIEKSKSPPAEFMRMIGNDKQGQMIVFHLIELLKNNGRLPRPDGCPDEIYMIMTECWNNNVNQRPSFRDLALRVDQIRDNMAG

With `COC(c1ccc(-n2cc(-c3ccnc4[nH]cnc34)cn2)nc1)C(F)(F)F` (stereo not drawn) [Example 1119, 7-(1-(5-(2,2,2-trifluoro-1-methoxyethyl)pyridin-2-yl)-1H-pyrazol-4-yl)-3H-imidazo[4,5-b]pyridine], the IC50 is 1.3 µM in test [1]; more than 1 µM in test [2]; 10 µM in test [3]; more than 10 µM in test [4]; more than 1 µM in test [5]; 0.03 µM in test [6]. In addition, the IC50 in test [7] turned out to be 0.07 µM; in test [8] it was 0.2 µM.
In the case of `CC(O)(c1ccc(-n2cc(-c3ccnc4[nH]cnc34)cn2)nc1)C(F)(F)F` (stereo not drawn) [Example 1125, 2-(6-(4-(3H-imidazo[4,5-b]pyridin-7-yl)-1H-pyrazol-1-yl)pyridin-3-yl)-1,1,1-trifluoropropan-2-ol], the IC50 in test [1] was 0.27 µM; in test [2] it was 0.15 µM; in test [3] it was more than 10 µM; in test [4] it was more than 10 µM; in test [5], 0.26 µM; in test [6], 0.004 µM. Also, the IC50 in test [7] worked out at 0.009 µM; in test [8] it was 0.023 µM.
As for `CCN1CCC([C@@](O)(c2ccc(-n3cc(-c4ccnc5[nH]cnc45)cn3)nc2)C(F)(F)F)C1` (stereo partly drawn) [Example 1232, (R)-1-(6-(4-(3H-imidazo[4,5-b]pyridin-7-yl)-1H-pyrazol-1-yl)pyridin-3-yl)-1-(1-ethylpyrrolidin-3-yl)-2,2,2-trifluoroethanol], the IC50 in test [1] is 0.09 µM; in test [2] it was 0.2 µM; in test [3], more than 3 µM; in test [4], more than 1 µM; in test [5], 0.34 µM; in test [6], 0.003 µM. For the same compound, the IC50 in test [7] was 0.015 µM; in test [8], 0.023 µM.
With `CN1CC(C(O)(c2ccc(-n3cc(-c4ccnc5[nH]cnc45)cn3)nc2)C(F)(F)F)C1` (stereo not drawn) [Example 1231, 1-(6-(4-(3H-imidazo[4,5-b]pyridin-7-yl)-1H-pyrazol-1-yl)pyridin-3-yl)-2,2,2-trifluoro-1-(1-methylazetidin-3-yl)ethanol], the IC50 is 0.05 µM in test [1]; more than 3 µM in test [3]; 1.5 µM in test [4]; 0.15 µM in test [5]; 0.0003 µM in test [6]; 0.005 µM in test [8].
Consider `OC(c1ccc(-n2cc(-c3ccnc4[nH]cnc34)cn2)nc1)C(F)(F)F` (stereo not drawn) [Example 1169, 1-(6-(4-(3H-imidazo[4,5-b]pyridin-7-yl)-1H-pyrazol-1-yl)pyridin-3-yl)-2,2,2-trifluoroethanol], for which the IC50 in test [1] was 0.45 µM; in test [2] it was more than 1 µM; in test [3], more than 10 µM; in test [4], more than 10 µM; in test [5] it was less than 1 µM; in test [6] it was 0.013 µM. Moreover, the IC50 is 0.014 µM in test [7] and 0.073 µM in test [8].
As for `N#CCc1ccc(-n2cc(-c3ccnc4[nH]cnc34)cn2)nc1` [Example 1078, 2-(6-(4-(3H-imidazo[4,5-b]pyridin-7-yl)-1H-pyrazol-1-yl)pyridin-3-yl)acetonitrile], the IC50 in test [1] is 1.05 µM; in test [2] it was more than 1 µM; in test [3] it was more than 10 µM; in test [4], more than 10 µM; in test [5], more than 1 µM; in test [6], 0.025 µM. Further, the figures for the IC50 in test [7] and in test [8] were 0.07 µM and 0.108 µM, respectively.
On to `CS(=O)(=O)CC[C@H](c1ccc(-n2cc(-c3ccnc4[nH]cnc34)cn2)nc1)C(F)(F)F` [Example 1182, 7-(1-(5-((R)-1,1,1-trifluoro-4-(methylsulfonyl)butan-2-yl)pyridin-2-yl)-1H-pyrazol-4-yl)-3H-imidazo[4,5-b]pyridine], for which the IC50 is 0.35 µM in test [1]; more than 1 µM in test [2]; more than 3 µM in test [3]; more than 1 µM in test [4]; 0.9 µM in test [5]; 0.015 µM in test [6]. Further, the IC50 in test [7] came out at 0.041 µM.
As to `CCN1CCC([C@](O)(c2ccc(-n3cc(-c4ccnc5[nH]cnc45)cn3)nc2)C(F)(F)F)C1` (stereo partly drawn) [Example 1233, (S)-1-(6-(4-(3H-imidazo[4,5-b]pyridin-7-yl)-1H-pyrazol-1-yl)pyridin-3-yl)-1-(1-ethylpyrrolidin-3-yl)-2,2,2-trifluoroethanol], the IC50 is 0.21 µM in test [1]; less than 0.5 µM in test [2]; more than 3 µM in test [3]; more than 1 µM in test [4]; more than 0.5 µM in test [5]; less than 0.1 µM in test [6]. For the same compound, the IC50 in test [7] and in test [8] was less than 0.1 µM throughout.
For the compound `CC(C)N1CCC([C@@](O)(c2ccc(-n3cc(-c4ccnc5[nH]cnc45)cn3)nc2)C(F)(F)F)C1` (stereo partly drawn) [Example 1225, (R)-1-(6-(4-(3H-imidazo[4,5-b]pyridin-7-yl)-1H-pyrazol-1-yl)pyridin-3-yl)-2,2,2-trifluoro-1-(1-isopropylpyrrolidin-3-yl)ethanol], the IC50 was 0.16 µM in test [1]; more than 1 µM in test [2]; more than 3 µM in test [3]; more than 1 µM in test [4]; 0.47 µM in test [5]; 0.0025 µM in test [6]. In addition, the IC50 was 0.018 µM in test [7] and 0.064 µM in test [8].

Source of the values: patent publication US12516056B2, “Compounds for inhibition of janus kinase 1” (MANKIND PHARMA LTD., priority 2019, dated 2026).
